Columns and labels:
Test in all cases: In vitro antibacterial evaluation: minimum inhibitory concentration (MIC), broth dilution method
Type in all cases: cell-based
Enterococcus sp. = test system: Enterococcus sp.
How it was run: (§1)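 MIC read as lowest drug level preventing visible growth. Organisms at 5×10^5 CFU/mL were exposed to a 64-0.06 μg/mL dilution series in Muller-Hinton II […] following NCCLS broth dilution standard M7-A2.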

Staphylococcus sp. = conditions: 18 hours at 35° C.
How it was run: as §1

Escherichia coli [1] = test system: Escherichia coli
How it was run: as §1

Streptococcus sp. = conditions: 18 hours at 35° C.
How it was run: as §1

Escherichia coli [2] = test system: Escherichia coli; remark: listed apart in the source

Question: Which “MIC Enterococcus avium (GC 4558)” value (Enterococcus sp.; Enterococcus avium (GC 4558)) does the source give for “α-O-[(Benzylamino)carbonyl]-cyclo[glycyl-β-methylphenylalanyl-O-(4-O-hexopyranosylhexopyranosyl)tyrosyl-3(2-iminoimidazolidin-4-yl)seryl-3-(3-hexopyranosyl-2-iminoimidazolidin-4-yl)serylseryl] [Example 257]” here?
Answer: 0.5 µg/mL

Question: What about the “MIC Enterococcus faecalis (ATCC 29212)” value (Enterococcus sp.; Enterococcus faecalis (ATCC 29212)) of the same substance?
Answer: 0.5 µg/mL

Question: What about the “MIC Enterococcus faecalis (GC 2242)” value (Enterococcus sp.; Enterococcus faecalis (GC 2242), 18 hours at 35° C.) of the same substance?
Answer: 0.5 µg/mL

Question: What about the “MIC Enterococcus faecalis (GC 2691)” value (Enterococcus sp.; Enterococcus faecalis (GC 2691), 18 hours at 35° C.) of the same substance?
Answer: 0.5 µg/mL

Question: What about the “MIC Enterococcus faecalis (GC 3059)” value (Enterococcus sp.; Enterococcus faecalis (GC 3059), 18 hours at 35° C.) of the same substance?
Answer: 0.5 µg/mL

Question: What about the “MIC Enterococcus faecalis (GC 4552)” value (Enterococcus sp.; Enterococcus faecalis (GC 4552), 18 hours at 35° C.) of the same substance?
Answer: >0.5 µg/mL

Question: And the “MIC Enterococcus faecalis (GC 4553)” value (Enterococcus sp.; Enterococcus faecalis (GC 4553))?
Answer: 0.5 µg/mL

Question: What about the “MIC Enterococcus faecalis (GC 4554)” value (Enterococcus sp.; Enterococcus faecalis (GC 4554)) of the same substance?
Answer: >0.5 µg/mL

Question: And the “MIC Enterococcus faecalis (GC 6189)” value (Enterococcus sp.; Enterococcus faecalis (GC 6189))?
Answer: 0.5 µg/mL

Question: What about the “MIC Enterococcus faecium (GC 2243)” value (Enterococcus sp.; Enterococcus faecium (GC 2243)) of the same substance?
Answer: 16 µg/mL

Question: And the “MIC Enterococcus faecium (GC 4556)” value (Enterococcus sp.; Enterococcus faecium (GC 4556))?
Answer: 16 µg/mL

Question: What about the “MIC Enterococcus faecium (GC 4557)” value (Enterococcus sp.; Enterococcus faecium (GC 4557)) of the same substance?
Answer: 2 µg/mL

Question: And the “MIC Enterococcus faecalis (ATCC 29212)” value (Enterococcus sp.; broth dilution, 18 hours at 35° C., strain ATCC 29212)?
Answer: 0.5 µg/mL

Question: And the “MIC Enterococcus faecalis (GC 2242)” value (Enterococcus sp.; broth dilution, 18 hours at 35° C., strain GC 2242)?
Answer: 0.5 µg/mL

Question: What about the “MIC Enterococcus faecium (GC 2243)” value (Enterococcus sp.; broth dilution, 18 hours at 35° C., strain GC 2243) of the same substance?
Answer: 16 µg/mL

Question: And the “MIC Enterococcus faecalis (GC 2691)” value (Enterococcus sp.; broth dilution, 18 hours at 35° C., strain GC 2691)?
Answer: 0.5 µg/mL

Question: And the “MIC Enterococcus faecalis (GC 3059)” value (Enterococcus sp.; broth dilution, 18 hours at 35° C., strain GC 3059)?
Answer: 0.5 µg/mL

Question: What about the “MIC Enterococcus faecalis (GC 4552)” value (Enterococcus sp.; broth dilution, 18 hours at 35° C., strain GC 4552) of the same substance?
Answer: >0.5 µg/mL

Question: And the “MIC Enterococcus faecalis (GC 4553)” value (Enterococcus sp.; broth dilution, 18 hours at 35° C., strain GC 4553)?
Answer: 0.5 µg/mL

Question: What about the “MIC Enterococcus faecalis (GC 4554)” value (Enterococcus sp.; broth dilution, 18 hours at 35° C., strain GC 4554) of the same substance?
Answer: >0.5 µg/mL

Question: What about the “MIC Enterococcus faecium (GC 4556)” value (Enterococcus sp.; broth dilution, 18 hours at 35° C., strain GC 4556) of the same substance?
Answer: 16 µg/mL

Question: What about the “MIC Enterococcus faecium (GC 4557)” value (Enterococcus sp.; broth dilution, 18 hours at 35° C., strain GC 4557) of the same substance?
Answer: 2 µg/mL

Question: And the “MIC Enterococcus avium (GC 4558)” value (Enterococcus sp.; broth dilution, 18 hours at 35° C., strain GC 4558)?
Answer: 0.5 µg/mL

Question: And the “MIC Enterococcus faecalis (GC 6189)” value (Enterococcus sp.; broth dilution, 18 hours at 35° C., strain GC 6189)?
Answer: 0.5 µg/mL

Question: What about the “MIC Coagulase Negative Staphylococcus (GC 4547)” value (Staphylococcus sp.; Coagulase Negative Staphylococcus (GC 4547)) of the same substance?
Answer: 2 µg/mL

Question: And the “MIC Coagulase Negative Staphylococcus (GC 4548)” value (Staphylococcus sp.; Coagulase Negative Staphylococcus (GC 4548))?
Answer: 2 µg/mL

Question: And the “MIC Coagulase Negative Staphylococcus (GC 4549)” value (Staphylococcus sp.; Coagulase Negative Staphylococcus (GC 4549))?
Answer: 2 µg/mL

Question: What about the “MIC Coagulase Negative Staphylococcus (GC 4551)” value (Staphylococcus sp.; Coagulase Negative Staphylococcus (GC 4551)) of the same substance?
Answer: 8 µg/mL

Question: What about the “MIC Coagulase Negative Staphylococcus (GC 6257)” value (Staphylococcus sp.; Coagulase Negative Staphylococcus (GC 6257)) of the same substance?
Answer: 1 µg/mL

Question: And the “MIC Staphylococcus aureus (ATCC 29213)” value (Staphylococcus sp.; Staphylococcus aureus (ATCC 29213))?
Answer: 0.5 µg/mL

Question: And the “MIC Staphylococcus aureus (GC 1131)” value (Staphylococcus sp.; Staphylococcus aureus (GC 1131))?
Answer: 0.5 µg/mL

Question: And the “MIC Staphylococcus aureus (GC 3051)” value (Staphylococcus sp.; Staphylococcus aureus (GC 3051))?
Answer: 0.5 µg/mL

Question: And the “MIC Staphylococcus aureus (GC 3053)” value (Staphylococcus sp.; Staphylococcus aureus (GC 3053))?
Answer: 0.5 µg/mL

Question: What about the “MIC Staphylococcus aureus (GC 4541)” value (Staphylococcus sp.; Staphylococcus aureus (GC 4541)) of the same substance?
Answer: 0.5 µg/mL

Question: What about the “MIC Staphylococcus aureus (GC 4542)” value (Staphylococcus sp.; Staphylococcus aureus (GC 4542)) of the same substance?
Answer: 0.5 µg/mL

Question: And the “MIC Staphylococcus aureus (GC 4544)” value (Staphylococcus sp.; Staphylococcus aureus (GC 4544))?
Answer: 0.5 µg/mL

Question: What about the “MIC Staphylococcus aureus (GC 4545)” value (Staphylococcus sp.; Staphylococcus aureus (GC 4545)) of the same substance?
Answer: 0.5 µg/mL

Question: And the “MIC Staphylococcus aureus-SMITH (GC 4543)” value (Staphylococcus sp.; Staphylococcus aureus-SMITH (GC 4543))?
Answer: 0.5 µg/mL

Question: What about the “MIC Staphylococcus haemolyticus (GC 4546)” value (Staphylococcus sp.; Staphylococcus haemolyticus (GC 4546)) of the same substance?
Answer: 2 µg/mL

Question: And the “MIC Staphylococcus aureus (ATCC 29213)” value (Staphylococcus sp.; broth dilution, strain ATCC 29213)?
Answer: 0.5 µg/mL

Question: And the “MIC Staphylococcus aureus (GC 1131)” value (Staphylococcus sp.; broth dilution, strain GC 1131)?
Answer: 0.5 µg/mL

Question: What about the “MIC Staphylococcus aureus (GC 3051)” value (Staphylococcus sp.; broth dilution, strain GC 3051) of the same substance?
Answer: 0.5 µg/mL

Question: What about the “MIC Staphylococcus aureus (GC 3053)” value (Staphylococcus sp.; broth dilution, strain GC 3053) of the same substance?
Answer: 0.5 µg/mL

Question: What about the “MIC Staphylococcus aureus (GC 4541)” value (Staphylococcus sp.; broth dilution, strain GC 4541) of the same substance?
Answer: 0.5 µg/mL

Question: And the “MIC Staphylococcus aureus (GC 4542)” value (Staphylococcus sp.; broth dilution, strain GC 4542)?
Answer: 0.5 µg/mL

Question: And the “MIC Staphylococcus aureus (GC 4544)” value (Staphylococcus sp.; broth dilution, strain GC 4544)?
Answer: 0.5 µg/mL

Question: What about the “MIC Staphylococcus aureus (GC 4545)” value (Staphylococcus sp.; broth dilution, strain GC 4545) of the same substance?
Answer: 0.5 µg/mL

Question: And the “MIC Escherichia coli (GC 4559)” value (Escherichia coli [1]; Escherichia coli (GC 4559))?
Answer: >0.5 µg/mL

Question: And the “MIC Escherichia coli (GC 4560)” value (Escherichia coli [1]; Escherichia coli (GC 4560))?
Answer: 0.5 µg/mL

Question: And the “MIC Streptococcus agalactiae (GC 4564)” value (Streptococcus sp.; Streptococcus agalactiae (GC 4564))?
Answer: 2 µg/mL

Question: And the “MIC Streptococcus pneumoniae (ATCC 6301)” value (Streptococcus sp.; Streptococcus pneumoniae (ATCC 6301))?
Answer: 0.25 µg/mL

Question: What about the “MIC Streptococcus pneumoniae (GC 1894)” value (Streptococcus sp.; Streptococcus pneumoniae (GC 1894)) of the same substance?
Answer: 0.25 µg/mL

Question: And the “MIC Streptococcus pneumoniae (GC 4565)” value (Streptococcus sp.; Streptococcus pneumoniae (GC 4565))?
Answer: 1 µg/mL

Question: What about the “MIC Streptococcus pyogenes (GC 4563)” value (Streptococcus sp.; Streptococcus pyogenes (GC 4563)) of the same substance?
Answer: 0.12 µg/mL

Question: And the “MIC Streptococcus pneumoniae (ATCC 6301)” value (Streptococcus sp.; broth dilution, strain ATCC 6301)?
Answer: 0.25 µg/mL

Question: And the “MIC Streptococcus pneumoniae (GC 1894)” value (Streptococcus sp.; broth dilution, strain GC 1894)?
Answer: 0.25 µg/mL

Question: And the “MIC Streptococcus pyogenes (GC 4563)” value (Streptococcus sp.; broth dilution, strain GC 4563)?
Answer: 0.12 µg/mL

Question: And the “MIC Streptococcus agalactiae (GC 4564)” value (Streptococcus sp.; broth dilution, strain GC 4564)?
Answer: 2 µg/mL

Question: What about the “MIC Streptococcus pneumoniae (GC 4565)” value (Streptococcus sp.; broth dilution, strain GC 4565) of the same substance?
Answer: 1 µg/mL

Question: And the “MIC Escherichia coli (ATCC 25922)” value (Escherichia coli [2])?
Answer: >0.5 µg/mL

— US8247211B2, “Glycopeptide antibiotics” (American Cyanamid Company, priority 2001, dated 2012)
